Assay results: ChEMBL document CHEMBL1134077, “Synthesis of potent and selective dopamine D(4) antagonists as candidate radioligands” (Bioorg Med Chem Lett, 2001)

How the values were obtained:
[1] = target: T1, D(4) dopamine receptor (Rattus norvegicus, UniProt P30729); experiment: In vitro binding affinity to rat Dopamine receptor D4 measured by displacement of the radioligand [3H]spiperone
T1 sequence (P30729 whole entry): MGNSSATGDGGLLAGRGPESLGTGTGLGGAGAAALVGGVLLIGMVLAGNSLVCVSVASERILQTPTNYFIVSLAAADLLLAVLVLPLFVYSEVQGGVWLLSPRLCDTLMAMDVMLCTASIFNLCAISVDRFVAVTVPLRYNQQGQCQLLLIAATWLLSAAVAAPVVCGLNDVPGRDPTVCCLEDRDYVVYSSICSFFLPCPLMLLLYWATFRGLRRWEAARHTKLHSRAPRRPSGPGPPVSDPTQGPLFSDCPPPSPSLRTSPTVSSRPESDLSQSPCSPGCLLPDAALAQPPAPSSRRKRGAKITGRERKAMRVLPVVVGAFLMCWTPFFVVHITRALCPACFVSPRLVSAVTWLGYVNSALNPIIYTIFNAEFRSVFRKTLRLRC

[2] = target: T2, 5-hydroxytryptamine receptor 2C (Homo sapiens, UniProt P28335); experiment: Binding affinity to cloned human 5-hydroxytryptamine 2C receptor
T2 sequence (P28335 whole entry): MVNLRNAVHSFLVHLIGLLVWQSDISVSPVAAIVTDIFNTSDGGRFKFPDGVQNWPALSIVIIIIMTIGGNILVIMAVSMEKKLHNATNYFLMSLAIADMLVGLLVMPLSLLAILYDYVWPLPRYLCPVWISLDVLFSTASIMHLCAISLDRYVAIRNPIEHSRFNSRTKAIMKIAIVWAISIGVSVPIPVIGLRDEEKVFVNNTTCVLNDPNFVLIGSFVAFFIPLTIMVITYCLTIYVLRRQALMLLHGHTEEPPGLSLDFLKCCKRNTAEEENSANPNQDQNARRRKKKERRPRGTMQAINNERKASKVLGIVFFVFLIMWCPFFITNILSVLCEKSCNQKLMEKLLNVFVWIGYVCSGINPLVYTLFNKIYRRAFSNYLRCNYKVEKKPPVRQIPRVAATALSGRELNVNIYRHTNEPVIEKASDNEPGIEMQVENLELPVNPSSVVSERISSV

[3] = target: T3, 5-hydroxytryptamine receptor 1D (Homo sapiens, UniProt P28221); experiment: Binding affinity to cloned human 5-hydroxytryptamine 1D receptor
[4] = target: Mu-type opioid receptor (Homo sapiens, UniProt P35372); experiment: Binding affinity to cloned Opioid receptor mu 1
[5] = target: Muscarinic acetylcholine receptor M1 (Homo sapiens, UniProt P11229); experiment: (§1) Binding affinity to cloned Muscarinic acetylcholine receptor M1
[6] = target: T4, Muscarinic acetylcholine receptor M1 (Homo sapiens, UniProt P11229); experiment: as §1; remark: listed apart in the source
T4 sequence (P11229 whole entry): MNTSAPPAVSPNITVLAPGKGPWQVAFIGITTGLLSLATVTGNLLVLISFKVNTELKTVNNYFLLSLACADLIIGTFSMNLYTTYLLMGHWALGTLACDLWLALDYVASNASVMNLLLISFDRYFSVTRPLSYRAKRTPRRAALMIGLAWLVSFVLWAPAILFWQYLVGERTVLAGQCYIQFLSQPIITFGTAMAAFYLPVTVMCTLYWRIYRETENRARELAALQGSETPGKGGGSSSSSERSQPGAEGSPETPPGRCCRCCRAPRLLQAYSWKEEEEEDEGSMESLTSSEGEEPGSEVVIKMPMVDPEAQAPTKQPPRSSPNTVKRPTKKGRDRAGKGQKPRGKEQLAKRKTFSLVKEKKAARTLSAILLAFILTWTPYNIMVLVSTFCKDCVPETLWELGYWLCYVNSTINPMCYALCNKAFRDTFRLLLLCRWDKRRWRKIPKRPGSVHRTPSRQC

[7] = target: T3, 5-hydroxytryptamine receptor 1D; experiment: In vitro binding affinity to human 5-hydroxytryptamine 1D receptor

T3 sequence (P28221 whole entry): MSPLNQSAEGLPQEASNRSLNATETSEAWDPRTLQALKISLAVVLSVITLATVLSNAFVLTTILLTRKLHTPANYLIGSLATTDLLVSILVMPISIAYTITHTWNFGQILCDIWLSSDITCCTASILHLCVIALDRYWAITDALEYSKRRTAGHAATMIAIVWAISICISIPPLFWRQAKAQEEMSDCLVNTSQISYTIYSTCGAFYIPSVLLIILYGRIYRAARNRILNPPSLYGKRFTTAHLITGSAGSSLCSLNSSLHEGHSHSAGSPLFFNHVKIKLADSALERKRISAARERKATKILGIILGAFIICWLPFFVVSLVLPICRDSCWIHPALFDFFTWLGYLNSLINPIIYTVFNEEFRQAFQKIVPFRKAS
Chain of Mu-type opioid receptor (P35372 whole entry): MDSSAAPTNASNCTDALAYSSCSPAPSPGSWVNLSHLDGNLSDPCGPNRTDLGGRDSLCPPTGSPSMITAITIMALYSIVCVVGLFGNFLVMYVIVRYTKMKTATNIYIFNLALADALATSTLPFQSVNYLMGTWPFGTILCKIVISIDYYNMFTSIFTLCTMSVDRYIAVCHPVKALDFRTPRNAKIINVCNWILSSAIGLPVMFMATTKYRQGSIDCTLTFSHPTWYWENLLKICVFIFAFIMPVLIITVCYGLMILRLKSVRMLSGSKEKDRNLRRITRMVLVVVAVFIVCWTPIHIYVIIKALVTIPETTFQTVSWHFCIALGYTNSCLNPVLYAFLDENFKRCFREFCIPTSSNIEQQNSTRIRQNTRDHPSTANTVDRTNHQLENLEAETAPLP

| Ki [1] | Ki [2] | Ki [3] | Ki [4] | Ki [6] | Compound | Ki [5] | Ki [7] |
| --- | --- | --- | --- | --- | --- | --- | --- |
| 0.005 µM | > 10 µM | > 10 µM | > 10 µM | > 10 µM | CCc1ccc(N2CCN(Cc3c[nH]c4ncccc34)CC2)cc1 | – | – |
| 0.0036 µM | > 10 µM | – | > 10 µM | – | COc1ccc(N2CCN(Cc3c[nH]c4ncccc34)CC2)cc1 | > 10 µM | > 10 µM |
| 0.148 µM | > 10 µM | – | > 10 µM | > 10 µM | c1ccc(-c2ccc(N3CCN(Cc4c[nH]c5ncccc45)CC3)cc2)cc1 | – | > 10 µM |
| 0.0023 µM | > 10 µM | > 10 µM | > 10 µM | – | Fc1ccc(N2CCN(Cc3c[nH]c4ncccc34)CC2)cc1 | > 10 µM | – |
| 0.0028 µM | > 10 µM | > 10 µM | > 10 µM | > 10 µM | C=Cc1ccc(N2CCN(Cc3c[nH]c4ncccc34)CC2)cc1 | – | – |

The next lines start with the compound.

| Compound | Ki [1] | Ki [2] | Ki [3] | Ki [4] | Ki [6] | Ki [5] | Ki [7] |
| --- | --- | --- | --- | --- | --- | --- | --- |
| Fc1ccccc1N1CCN(Cc2c[nH]c3ncccc23)CC1 | 0.0033 µM | > 10 µM | > 10 µM | > 10 µM | – | > 10 µM | – |
| CSc1ccc(N2CCN(Cc3c[nH]c4ncccc34)CC2)cc1 | 0.0047 µM | > 10 µM | – | > 10 µM | – | > 10 µM | > 10 µM |
| CCCc1ccc(N2CCN(Cc3c[nH]c4ncccc34)CC2)cc1 | 0.0067 µM | > 10 µM | > 10 µM | > 10 µM | > 10 µM | – | – |
| COc1ccccc1N1CCN(Cc2c[nH]c3ncccc23)CC1 | 0.0014 µM | > 10 µM | – | > 10 µM | – | > 10 µM | > 10 µM |
